Some test systems named below: LOX IMVI; A549; M14; OVCAR-3; CCRF-CEM; HL-60; SR; NCI-H23; SK-MEL-2; HCT-116; SK-OV-3; ACHN; DMS-273; HOP-62; RXF 393; HT-29; LXFL 529; Malme-3M; MDA-N; BT-549.
Assay in all cases: NCI anticancer screen, dose series, 48 h

Molecules are shown by their SMILES.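 Assay format: 96-well plates, 48-hour exposure. GI50 = concentration required for 50% inhibition of growth.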 Activity calls are given as the source filed them. Rule as the data show it: active = GI50 up to about 1.1 µM and inactive = higher. Where only a bound is given, the exact number is not on record here.

With `c1ccc(CN(Cc2ccccn2)Cn2cccn2)nc1`, the GI50 with LOX IMVI is 67.6 µM (inactive); with A549 it was 54.6 µM (inactive); in the experiment on M14, 25.9 µM (inactive); in the experiment on OVCAR-3 it was > 100 µM (inactive); in the experiment on CCRF-CEM, 29.5 µM (inactive); in the experiment on HL-60, 22.9 µM (inactive). In addition, the GI50 in the experiment with SR is 33.4 µM (inactive); with NCI-H23, 50.5 µM (inactive); in the experiment with SK-MEL-2 it was > 100 µM (inactive); with HCT-116, 22.5 µM (inactive); in the experiment with SK-OV-3 it was 43 µM (inactive); with ACHN, 33 µM (inactive). In addition, the values for the GI50 in the experiment with DMS-273, with HOP-62 and in the experiment with RXF 393 were 35.7 µM (inactive), > 100 µM (inactive) and 57.5 µM (inactive), respectively.

Turning to `CCCN(CCCC(NC(C)=O)C(=O)NCc1ccccc1)C(=O)NC` (centres undefined), the GI50 in the experiment on LOX IMVI, in the experiment with HT-29, in the experiment on A549, with M14, in the experiment on OVCAR-3 and in the experiment on CCRF-CEM was > 100 µM (inactive) each time. In addition, the GI50 in the experiment on NCI-H23, with SK-MEL-2, in the experiment on HCT-116, with LXFL 529, in the experiment with SK-OV-3 and in the experiment with ACHN was > 100 µM (inactive) throughout. Further, the GI50 in the experiment with Malme-3M, in the experiment on DMS-273, in the experiment with HOP-62 and in the experiment on RXF 393 was > 100 µM (inactive) each time.

As for `CN(C)c1ccc(/C=C(\NC(=O)c2ccccc2)c2nc3ccc4c(c3[nH]2)C(=O)c2ccccc2C4=O)cc1`, the GI50 in the experiment on LOX IMVI was 20.2 µM (inactive); with HT-29, 69.3 µM (inactive); with A549 it was 20 µM (inactive); in the experiment with M14 it was 53.8 µM (inactive); with OVCAR-3, 32.2 µM (inactive); in the experiment on CCRF-CEM, 0.966 µM (active). Also, the GI50 with NCI-H23 is 18.1 µM (inactive); with SK-MEL-2 it was 61.8 µM (inactive); in the experiment with HCT-116, 20.9 µM (inactive); with LXFL 529, 39.6 µM (inactive); with SK-OV-3 it was 39 µM (inactive); with Malme-3M it was > 100 µM (inactive). The GI50 with DMS-273 is 27.2 µM (inactive); in the experiment with HOP-62, 61.9 µM (inactive); in the experiment with RXF 393, 18.9 µM (inactive).

On to `COc1cc(/C=C2/C(=O)N(C(=O)c3ccccc3O)N=C2C)cc(OC)c1OC`, for which the GI50 is 2.09 µM (inactive) with LOX IMVI; 34.4 µM (inactive) in the experiment on HT-29; 0.439 µM (active) in the experiment with A549; 7.38 µM (inactive) in the experiment with M14; 1.53 µM (inactive) with OVCAR-3; 1.77 µM (inactive) with CCRF-CEM. Besides, the GI50 in the experiment on HL-60 was 2.9 µM (inactive); in the experiment on MDA-N it was 1.02 µM (active); in the experiment on NCI-H23 it was 0.653 µM (active); in the experiment on SK-MEL-2 it was 1.44 µM (inactive); with HCT-116, 0.358 µM (active); with LXFL 529 it was 0.555 µM (active). The GI50 is 0.741 µM (active) with BT-549; 2.47 µM (inactive) in the experiment on SK-OV-3; 0.92 µM (active) in the experiment on ACHN; 8.17 µM (inactive) with Malme-3M; 1.29 µM (inactive) with HOP-62; 0.192 µM (active) with RXF 393.

In the case of `NC(=O)C[C@H](NC(=O)C1(NC(=O)[C@H](Cc2ccc(CP(=O)(O)O)cc2)NC(=O)C(=O)O)CCCCC1)C(=O)NCCCc1cccc2ccccc12`, the GI50 was > 10 µM (inactive) in the experiment with LOX IMVI; > 10 µM (inactive) in the experiment on HT-29; > 10 µM (inactive) in the experiment on A549; > 10 µM (inactive) in the experiment on M14; > 10 µM (inactive) in the experiment with OVCAR-3; 8.28 µM (inactive) in the experiment with CCRF-CEM. For the same compound, the GI50 is > 10 µM (inactive) in the experiment on HL-60; 1.82 µM (inactive) with SR; > 10 µM (inactive) with MDA-N; > 10 µM (inactive) with NCI-H23; > 10 µM (inactive) in the experiment on SK-MEL-2; > 10 µM (inactive) with HCT-116. Further, the GI50 in the experiment with BT-549, in the experiment with SK-OV-3, with ACHN, in the experiment with Malme-3M, with HOP-62 and in the experiment with RXF 393 was > 10 µM (inactive) in each case.

With `COc1ccc(OC)c2[nH]c(Sc3c([N+](=O)[O-])ncn3C)nc12`, the GI50 is 79.1 µM (inactive) in the experiment on LOX IMVI; 28.4 µM (inactive) with HT-29; 33.7 µM (inactive) in the experiment on A549; 20.3 µM (inactive) in the experiment with M14; 16.8 µM (inactive) in the experiment on OVCAR-3; 17.5 µM (inactive) with NCI-H23. Also, the GI50 in the experiment on HCT-116 was 21.7 µM (inactive); in the experiment on LXFL 529, 13 µM (inactive); in the experiment with SK-OV-3 it was 35.2 µM (inactive); in the experiment on ACHN it was 27.8 µM (inactive); with Malme-3M, 13.5 µM (inactive); in the experiment with DMS-273 it was 11.8 µM (inactive). For the same compound, the GI50 was > 100 µM (inactive) in the experiment with HOP-62 and 25.2 µM (inactive) in the experiment on RXF 393.

Take `CC1CC[C@]2(C(=O)O)CCC3(C)C(=CC(=O)C4[C@@]5(C)CCC(=O)C(C)(C)C5CC[C@]43C)[C@@H]2[C@H]1C` (some centres undefined): the GI50 with LOX IMVI was 15.9 µM (inactive); in the experiment with HT-29, 28.4 µM (inactive); in the experiment on A549 it was 24.5 µM (inactive); in the experiment with M14, 29.5 µM (inactive); in the experiment with OVCAR-3, 17.4 µM (inactive); with CCRF-CEM, 14.4 µM (inactive). The GI50 in the experiment with HL-60 is 4.75 µM (inactive); with SR, 10.9 µM (inactive); with NCI-H23, 25.1 µM (inactive); in the experiment with HCT-116, 18.1 µM (inactive); in the experiment with LXFL 529 it was 18.6 µM (inactive); with SK-OV-3, 34.5 µM (inactive). For the same compound, the GI50 was 21 µM (inactive) with ACHN, 28.8 µM (inactive) with Malme-3M, 22.1 µM (inactive) in the experiment with HOP-62 and 17.8 µM (inactive) with RXF 393.

Regarding `COc1ccc(OC(C(=O)O)c2ccccc2)c2c1CCCC2=O` (centres undefined), the GI50 in the experiment with LOX IMVI, in the experiment with HT-29, with A549, in the experiment on M14, in the experiment with OVCAR-3 and with CCRF-CEM was > 100 µM (inactive) in each case. For the same compound, the GI50 in the experiment on HL-60, in the experiment with NCI-H23, in the experiment with SK-MEL-2, in the experiment with HCT-116, with LXFL 529 and with SK-OV-3 was > 100 µM (inactive) each time. Besides, the GI50 in the experiment with ACHN, in the experiment on Malme-3M, with DMS-273 and with HOP-62 was > 100 µM (inactive) in each case.

Turning to `Oc1nc(-c2cccc(F)c2)nc2ccccc12`, the GI50 was > 100 µM (inactive) in the experiment with LOX IMVI; > 100 µM (inactive) in the experiment with HT-29; 51.6 µM (inactive) in the experiment on A549; 62.1 µM (inactive) with M14; > 54.2 µM (inactive) in the experiment with OVCAR-3; > 21.3 µM (inactive) in the experiment on CCRF-CEM. In addition, the GI50 in the experiment with HL-60 was > 100 µM (inactive); in the experiment on SR, > 77.3 µM (inactive); with MDA-N it was > 62.8 µM (inactive); with NCI-H23 it was 32.5 µM (inactive); in the experiment on SK-MEL-2, 41 µM (inactive); with HCT-116, 27.2 µM (inactive). The GI50 with BT-549 was > 46.9 µM (inactive); in the experiment on SK-OV-3 it was 28.7 µM (inactive); in the experiment with ACHN, 31.1 µM (inactive); in the experiment with Malme-3M it was 45.8 µM (inactive); in the experiment with HOP-62 it was 22.5 µM (inactive); in the experiment on RXF 393 it was 29.9 µM (inactive).

`CCC1(O)C(=O)OCc2c1cc1n(c2=O)Cc2cc3cc(OC)c(OC)cc3nc2-1` (centres undefined): the GI50 in the experiment with LOX IMVI is 7.19 µM (inactive); with HT-29, > 100 µM (inactive); in the experiment with A549, 33.1 µM (inactive); in the experiment on M14 it was 26.4 µM (inactive); with OVCAR-3 it was 83.4 µM (inactive); with CCRF-CEM, 2.81 µM (inactive). The GI50 with HL-60 is 12 µM (inactive); in the experiment on SR, 2.29 µM (inactive); in the experiment on NCI-H23, 15 µM (inactive); in the experiment with HCT-116, 22.3 µM (inactive); in the experiment with LXFL 529 it was > 100 µM (inactive); in the experiment on SK-OV-3, 19.7 µM (inactive). Also, the GI50 with ACHN is 4.5 µM (inactive); in the experiment with Malme-3M it was > 100 µM (inactive); in the experiment with HOP-62, 2.79 µM (inactive); with RXF 393 it was 16.9 µM (inactive).

For `Cc1ccc(S(=O)(=O)N/N=C\c2c3ccccc3[n+]([O-])c3ccccc23)cc1`, the GI50 in the experiment with LOX IMVI is 1.08 µM (active); in the experiment on HT-29 it was 1.63 µM (inactive); in the experiment with A549 it was 5.12 µM (inactive); with M14 it was 4.57 µM (inactive); in the experiment with OVCAR-3, 16.1 µM (inactive); in the experiment on CCRF-CEM, 0.476 µM (active). The GI50 in the experiment on HL-60 was 0.889 µM (active); with NCI-H23, 4.48 µM (inactive); in the experiment with SK-MEL-2 it was 4.41 µM (inactive); in the experiment with HCT-116 it was 0.472 µM (active); with LXFL 529 it was 0.935 µM (active); in the experiment on SK-OV-3, 14.7 µM (inactive). The GI50 is 2.7 µM (inactive) with ACHN, 12.2 µM (inactive) in the experiment with Malme-3M, 3.41 µM (inactive) in the experiment with DMS-273 and 5.38 µM (inactive) in the experiment with HOP-62.

For the compound `CC(=O)N(O)Cc1ccccc1`, the GI50 with LOX IMVI, in the experiment on HT-29, with A549, with M14, with OVCAR-3 and in the experiment with CCRF-CEM was > 100 µM (inactive) each time. The GI50 with HL-60, in the experiment on SR, with NCI-H23, in the experiment on HCT-116, in the experiment on LXFL 529 and with SK-OV-3 was > 100 µM (inactive) in each case. Further, the GI50 with ACHN, in the experiment with Malme-3M, in the experiment on HOP-62 and in the experiment on RXF 393 was > 100 µM (inactive) in each case.

For the origin of these results see ChEMBL document CHEMBL1201862, “PubChem BioAssay data set” (2004).
